Reference: ChEMBL document CHEMBL1671836, “Synthesis and Structure-Activity Relationships of Benzothienothiazepinone Inhibitors of Protein Kinase D” (ACS Med Chem Lett, 2011)
Active and inactive are the calls of the source. The rule behind the calls is not given here.

Experiments:
[1] = target: Protein kinase C delta type (Homo sapiens) (UniProt Q05655); experiment: Inhibition of human recombinant PKCdelta at < 10 uM after 10 mins by radiometric assay
[2] = target: Protein kinase C alpha type (Homo sapiens) (UniProt P17252); experiment: Inhibition of human recombinant PKCalpha at < 10 uM after 10 mins by radiometric assay
[3] = target: RAC-alpha serine/threonine-protein kinase (Homo sapiens) (UniProt P31749); experiment: Inhibition of AKT at < 10 uM by IMAP assay
[4] = target: Cyclin-dependent kinase 7 (Homo sapiens) (UniProt P50613); experiment: Inhibition of CDK7 at < 10 uM by TR-FRET assay
[5] = target: Serine/threonine-protein kinase PLK2 (Homo sapiens) (UniProt Q9NYY3); experiment: Inhibition of PLK2 at < 10 uM by TR-FRET assay
[6] = target: Protein kinase C beta type (Homo sapiens) (UniProt P05771); experiment: Inhibition of human recombinant PKCbeta1 at < 10 uM after 10 mins by radiometric assay
[7] = target: Calcium/calmodulin-dependent protein kinase type II subunit alpha (Homo sapiens) (UniProt Q9UQM7); experiment: Inhibition of human recombinant CAMK2alpha at < 10 uM after 10 mins by radiometric assay
[8] = target: Serine/threonine-protein kinase PLK1 (Homo sapiens) (UniProt P53350); experiment: Inhibition of PLK1 at < 10 uM by TR-FRET assay
[9] = Inhibition of human recombinant PKD3 after 10 mins by radiometric assay

Sequence of Protein kinase C beta type (Homo sapiens) (P05771 2-671 limits assumed): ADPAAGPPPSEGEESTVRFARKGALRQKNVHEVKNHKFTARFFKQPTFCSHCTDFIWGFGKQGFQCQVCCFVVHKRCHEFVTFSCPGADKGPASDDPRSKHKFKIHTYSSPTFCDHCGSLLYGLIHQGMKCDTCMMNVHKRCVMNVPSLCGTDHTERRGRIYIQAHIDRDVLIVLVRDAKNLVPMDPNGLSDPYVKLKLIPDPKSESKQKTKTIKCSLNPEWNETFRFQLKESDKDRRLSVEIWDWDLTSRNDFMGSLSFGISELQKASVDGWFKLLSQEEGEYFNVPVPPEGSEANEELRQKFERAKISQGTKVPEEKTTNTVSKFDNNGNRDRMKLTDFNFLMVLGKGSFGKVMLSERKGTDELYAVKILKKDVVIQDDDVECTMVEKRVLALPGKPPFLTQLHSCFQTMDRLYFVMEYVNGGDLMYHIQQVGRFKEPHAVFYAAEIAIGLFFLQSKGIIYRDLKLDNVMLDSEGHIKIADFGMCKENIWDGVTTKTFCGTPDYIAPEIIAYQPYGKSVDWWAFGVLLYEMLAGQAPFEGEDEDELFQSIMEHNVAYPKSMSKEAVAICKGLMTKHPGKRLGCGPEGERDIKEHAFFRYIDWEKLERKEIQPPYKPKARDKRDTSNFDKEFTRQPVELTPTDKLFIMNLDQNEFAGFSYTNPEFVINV
Sequence of Calcium/calmodulin-dependent protein kinase type II subunit alpha (Homo sapiens) (Q9UQM7 whole entry): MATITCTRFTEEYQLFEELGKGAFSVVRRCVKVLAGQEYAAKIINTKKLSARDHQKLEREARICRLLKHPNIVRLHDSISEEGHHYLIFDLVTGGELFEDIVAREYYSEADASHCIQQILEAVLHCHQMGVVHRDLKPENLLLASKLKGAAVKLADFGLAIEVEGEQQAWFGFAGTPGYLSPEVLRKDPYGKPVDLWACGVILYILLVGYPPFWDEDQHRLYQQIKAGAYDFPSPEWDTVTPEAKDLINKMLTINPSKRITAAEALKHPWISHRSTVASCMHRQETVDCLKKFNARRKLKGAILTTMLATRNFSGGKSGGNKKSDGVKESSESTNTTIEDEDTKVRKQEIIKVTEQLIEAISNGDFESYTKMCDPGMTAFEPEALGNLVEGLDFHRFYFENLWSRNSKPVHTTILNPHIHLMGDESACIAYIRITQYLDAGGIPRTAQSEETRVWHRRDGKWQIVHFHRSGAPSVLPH
Sequence of RAC-alpha serine/threonine-protein kinase (Homo sapiens) (P31749 whole entry): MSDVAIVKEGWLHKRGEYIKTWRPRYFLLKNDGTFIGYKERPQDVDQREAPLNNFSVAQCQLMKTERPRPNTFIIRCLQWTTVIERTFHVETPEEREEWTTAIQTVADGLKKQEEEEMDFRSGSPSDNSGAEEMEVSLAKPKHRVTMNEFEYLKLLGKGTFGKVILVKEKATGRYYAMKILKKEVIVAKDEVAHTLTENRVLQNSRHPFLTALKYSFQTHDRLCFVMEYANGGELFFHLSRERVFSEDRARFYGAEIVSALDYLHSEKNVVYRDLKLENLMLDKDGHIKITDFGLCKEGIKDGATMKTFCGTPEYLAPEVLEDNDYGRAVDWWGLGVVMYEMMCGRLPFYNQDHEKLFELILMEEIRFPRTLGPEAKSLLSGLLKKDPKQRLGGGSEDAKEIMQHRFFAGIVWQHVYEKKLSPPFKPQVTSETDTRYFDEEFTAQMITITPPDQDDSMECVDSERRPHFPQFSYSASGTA
Sequence of Protein kinase C delta type (Homo sapiens) (Q05655 whole entry, looked up): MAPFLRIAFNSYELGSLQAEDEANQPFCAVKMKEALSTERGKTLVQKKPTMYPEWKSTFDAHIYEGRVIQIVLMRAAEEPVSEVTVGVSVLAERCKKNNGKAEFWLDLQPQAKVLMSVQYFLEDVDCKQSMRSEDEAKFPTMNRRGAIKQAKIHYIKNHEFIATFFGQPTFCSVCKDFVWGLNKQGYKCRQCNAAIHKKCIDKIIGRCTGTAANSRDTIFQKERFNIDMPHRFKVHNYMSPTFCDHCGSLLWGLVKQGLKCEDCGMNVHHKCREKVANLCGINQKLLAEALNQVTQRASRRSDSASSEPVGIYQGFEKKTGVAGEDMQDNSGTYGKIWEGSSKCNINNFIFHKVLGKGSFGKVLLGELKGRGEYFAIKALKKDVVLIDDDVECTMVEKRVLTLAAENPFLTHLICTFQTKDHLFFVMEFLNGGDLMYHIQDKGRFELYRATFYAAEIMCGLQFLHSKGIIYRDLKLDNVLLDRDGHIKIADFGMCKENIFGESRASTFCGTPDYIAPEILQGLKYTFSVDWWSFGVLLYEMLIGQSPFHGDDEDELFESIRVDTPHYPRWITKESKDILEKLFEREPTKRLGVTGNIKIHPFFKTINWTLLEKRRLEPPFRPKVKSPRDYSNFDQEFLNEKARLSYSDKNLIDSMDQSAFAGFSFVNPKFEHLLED
Sequence of Serine/threonine-protein kinase PLK2 (Homo sapiens) (Q9NYY3 whole entry, looked up): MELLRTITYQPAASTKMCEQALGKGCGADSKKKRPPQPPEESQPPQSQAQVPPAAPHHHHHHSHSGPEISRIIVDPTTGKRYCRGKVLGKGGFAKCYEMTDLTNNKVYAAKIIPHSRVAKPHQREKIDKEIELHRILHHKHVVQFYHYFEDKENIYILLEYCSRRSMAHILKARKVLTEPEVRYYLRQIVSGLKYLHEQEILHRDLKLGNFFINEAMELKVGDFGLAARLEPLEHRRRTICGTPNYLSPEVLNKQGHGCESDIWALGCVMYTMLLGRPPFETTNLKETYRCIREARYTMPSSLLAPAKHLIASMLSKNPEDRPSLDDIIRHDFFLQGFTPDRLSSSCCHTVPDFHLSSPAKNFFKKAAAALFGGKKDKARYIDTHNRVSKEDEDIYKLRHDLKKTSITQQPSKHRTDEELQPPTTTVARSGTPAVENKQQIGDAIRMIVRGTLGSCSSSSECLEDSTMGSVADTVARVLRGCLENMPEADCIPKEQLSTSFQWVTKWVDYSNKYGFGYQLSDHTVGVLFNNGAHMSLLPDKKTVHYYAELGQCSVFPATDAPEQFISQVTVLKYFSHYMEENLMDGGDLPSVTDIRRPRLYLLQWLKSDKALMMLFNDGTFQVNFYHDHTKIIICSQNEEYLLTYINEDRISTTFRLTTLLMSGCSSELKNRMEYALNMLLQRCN
Sequence of Serine/threonine-protein kinase PLK1 (Homo sapiens) (P53350 whole entry): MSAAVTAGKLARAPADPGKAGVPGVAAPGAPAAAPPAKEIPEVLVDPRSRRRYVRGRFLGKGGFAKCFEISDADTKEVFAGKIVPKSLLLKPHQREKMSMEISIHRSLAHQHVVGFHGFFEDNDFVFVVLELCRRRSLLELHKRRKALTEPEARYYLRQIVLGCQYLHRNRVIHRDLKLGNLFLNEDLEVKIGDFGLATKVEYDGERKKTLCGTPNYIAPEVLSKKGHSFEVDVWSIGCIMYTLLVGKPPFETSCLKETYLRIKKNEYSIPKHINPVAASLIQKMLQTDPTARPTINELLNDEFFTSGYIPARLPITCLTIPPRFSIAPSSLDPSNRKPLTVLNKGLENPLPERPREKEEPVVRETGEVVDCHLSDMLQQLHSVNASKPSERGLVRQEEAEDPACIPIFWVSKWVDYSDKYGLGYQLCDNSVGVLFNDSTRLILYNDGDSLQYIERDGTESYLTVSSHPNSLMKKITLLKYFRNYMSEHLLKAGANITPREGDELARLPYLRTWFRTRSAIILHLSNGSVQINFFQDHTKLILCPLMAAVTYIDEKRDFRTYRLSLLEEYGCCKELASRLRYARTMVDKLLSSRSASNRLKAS
Sequence of Cyclin-dependent kinase 7 (Homo sapiens) (P50613 whole entry): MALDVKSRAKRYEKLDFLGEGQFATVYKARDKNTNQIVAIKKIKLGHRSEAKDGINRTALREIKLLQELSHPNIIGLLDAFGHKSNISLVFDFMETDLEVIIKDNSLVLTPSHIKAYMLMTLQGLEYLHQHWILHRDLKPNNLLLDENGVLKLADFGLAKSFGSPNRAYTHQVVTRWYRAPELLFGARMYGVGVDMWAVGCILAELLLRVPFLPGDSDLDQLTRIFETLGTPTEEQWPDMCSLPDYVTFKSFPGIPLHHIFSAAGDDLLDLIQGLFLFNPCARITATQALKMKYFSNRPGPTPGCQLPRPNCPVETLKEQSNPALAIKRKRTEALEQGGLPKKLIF

Row | inhibition [1] | inhibition [2] | inhibition [3] | inhibition [4] | inhibition [5] | inhibition [6] | inhibition [7] | inhibition [8] | IC50 [9] [µM] | SMILES
1 | inactive | inactive | inactive | inactive | inactive | inactive | inactive | inactive |  | O=C1NCCCSc2c1sc1ccc(O)cc21
2 | inactive | inactive | inactive | inactive | inactive | inactive | inactive | inactive | 0.05 | COc1ncc2sc3c(c2n1)SCCNC3=O
3 | inactive | inactive | inactive | inactive | inactive | inactive | inactive | inactive |  | O=C1NCCCc2c1oc1ccc(O)cc21
4 | inactive | inactive | inactive | inactive | inactive | inactive | inactive | inactive |  | COc1ccc2sc3c(c2c1)SCCCNC3=O
5 | inactive | inactive | inactive | inactive | inactive | inactive | < 40% | inactive |  | [N-]=[N+]=Nc1ccc2sc3c(c2c1)SCCNC3=O
6 | inactive | inactive | inactive | inactive | inactive | inactive | < 40% | inactive |  | O=C1NCCCc2c1[nH]c1ccc(O)cc21
7 | inactive | inactive | inactive | inactive | inactive | inactive | inactive | inactive |  | O=C1NCCSc2c1sc1ccc(O)cc21
8 | inactive | inactive | inactive | inactive | inactive | inactive | inactive | inactive |  | COc1ccc2sc3c(c2c1)SCCNC3=O
